# Test results from US7033615B2, “Methods for regulating levels of zinc, cadmium and calcium in humans and for diagnosing, or screening for the risk of developing, diseases associated with abnormal levels of cadmium, zinc and calcium in body fluids and tissues” (CancEr2 Inc., priority 1999, dated 2006).
# How the values were obtained:
# [1] = Counter-exchange of serum cadmium to erythrocytes (erythrocyte Cd/(erythrocyte Cd+serum Cd)) in men given cadmium sulfate; format: in vivo; settings: CdSO4 1 mg daily
# Method: (§1) Three healthy men with low PSA levels (below 2 ng/ml) volunteered for weekly blood and urine collection while a serial treatment of zinc, zinc with cadmium, and cadmium was administered. Treatment was given daily over a nine week period, followed by three weeks of continued sampling with no treatment. The zinc was administered in the form of zinc sulfate (Zn SO4) at a daily dosage of 75 mg. The cadmium was administered in the form of cadmium sulfate (CdSO4) at a daily dosage of 1 mg. Blood and urine were collected one day prior to the beginning of treatment for purposes of establishing a baseline level of chemicals in the blood and urine. Zinc salt administration began on the second day of the study and was administered each morning. On day 15, the cadmium salt administration was begun in the evening, with continued zinc salt administration continuing in the morning. Zinc administration was discontinued on day 43; cadmium administration continued through day 57. On days 58–78 of the study, neither zinc nor cadmium was administered, but blood and urine samples continued to be collected. Blood and urine were collected one day each week (days 1, 8, 15, etc.) for a total of 12 collection days over an 11 week period. […]
# (§2) The second syringe contained no EDTA and was used to collect blood serum. […] All processed blood samples were stored in a −80° C. freezer until analyzed. […]
# erythrocytes = assay: Blockage of calcium penetration into erythrocytes (serum calcium/erythrocyte calcium) in men given cadmium sulfate; format: in vivo; settings: three men, CdSO4 1 mg daily
# Method: as §1, §2
# [2] = test system: rat tissue vs human tissue; settings: rat tissue more sensitive than human tissue; cited from earlier work
smiles,measurement,setting,value
"O=S(=O)([O-])[O-].[Cd+2] [cadmium, cadmium sulfate]",increase of counter-exchange of serum cadmium to erythrocytes in each man,"[1]; three healthy low-PSA men, minimum increase per man",≥ 116%
same,average cadmium counter-exchange after cadmium treatment (mean+/-S.D.),"[1]; three men, increased from 0.311 +/-0.166",0.466+/−0.077
same,increase of blockage to calcium penetration in each man,erythrocytes,178–330%
same,average blockage of calcium penetration after cadmium treatment (mean+/-S.D.),"erythrocytes; increased from 114.79+/-21.135, p=0.0492",314.001+/−150.942
same,sensitivity of rat tissue to cadmium relative to human tissue,[2],30 times
